For 31 molecules, Kd and IC50 results are on record in patent US10934274B2, “Quinoline derivatives as TAM RTK inhibitors” (Qurient Co., Ltd., priority 2015, dated 2021).

One assay concerns the target T1, TYRO3 (Homo sapiens, UniProt Q06418).
T1 construct: purchased Life Technologies
T1 sequence (Q06418 41-890): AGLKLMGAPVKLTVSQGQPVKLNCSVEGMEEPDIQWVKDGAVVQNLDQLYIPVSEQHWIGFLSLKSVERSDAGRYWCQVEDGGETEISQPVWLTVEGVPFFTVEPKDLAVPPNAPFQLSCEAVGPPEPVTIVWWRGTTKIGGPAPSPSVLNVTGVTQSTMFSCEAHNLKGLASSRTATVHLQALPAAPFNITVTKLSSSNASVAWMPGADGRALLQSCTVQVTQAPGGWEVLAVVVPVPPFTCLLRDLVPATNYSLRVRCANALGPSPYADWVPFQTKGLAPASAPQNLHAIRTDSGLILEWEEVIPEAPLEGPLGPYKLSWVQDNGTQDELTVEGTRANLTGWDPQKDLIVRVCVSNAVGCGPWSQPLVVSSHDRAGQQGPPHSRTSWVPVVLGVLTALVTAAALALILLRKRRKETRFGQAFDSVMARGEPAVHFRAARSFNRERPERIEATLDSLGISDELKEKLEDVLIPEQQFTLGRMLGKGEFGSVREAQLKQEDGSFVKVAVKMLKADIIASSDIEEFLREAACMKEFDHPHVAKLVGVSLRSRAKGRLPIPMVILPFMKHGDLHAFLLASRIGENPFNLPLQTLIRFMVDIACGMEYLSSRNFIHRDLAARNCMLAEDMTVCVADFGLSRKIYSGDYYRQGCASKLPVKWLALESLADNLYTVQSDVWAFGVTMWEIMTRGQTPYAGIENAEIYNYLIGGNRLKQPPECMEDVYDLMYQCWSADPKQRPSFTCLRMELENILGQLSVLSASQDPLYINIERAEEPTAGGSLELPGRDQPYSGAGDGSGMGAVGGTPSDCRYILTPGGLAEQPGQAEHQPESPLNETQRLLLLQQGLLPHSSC
The assay can be described thus: LanthaScreen Eu kinase binding assay, TYRO3. The following applies: Tracer 236.

The target in the next assay is T2, Met (Homo sapiens, UniProt P08581).
T2 construct: purchased Life Technologies
The assay can be described thus: LanthaScreen Eu kinase binding assay, Met. Conditions: Tracer 236, read-out: cMet kinase binding activity (Kd). Background: Time-resolved FRET reads energy transfer from a long-lived donor to a nearby acceptor.

Assay [1] deals with Axl phosphorylation in transiently transfected HEK293T cells. In words: Cellular Axl phosphorylation assay. In kind it is cell-based. Conditions: Homo sapiens, HEK-293T; HEK293T cells transfected with Axl, 1 hour compound treatment, Phospho-Axl vs Total-Axl. From the text: Cell AXL Inhibition Assay Principle
The assay is based on the measurement of the relative amounts of Total-Axl and Phosphorylated-Axl in whole cell lysates of transiently transfected HEK293T cells. This assay is based on application of the Mesoscale western blot and subsequent electro-chemiluminescence detection. Overexpression of Axl-RTK (Receptor tyrosine kinase) by transfection leads to an increase in Axl-trans-autophosphorylation events. Upon compound treatment, the correlation of the measured values of Phosphorylated-Axl and Total Axl indicate the potential of the tested compound to inhibit Axl-phosphorylation at the given compound concentration.
Cell AXL Inhibition Assay Protocol
HEK293T cells (2.5×10^4/well) were plated in a 96 well plate and cells were transfected with pcDNA_DEST_40 Axl or pcDNA_DEST_40 by Superfact reagent (Qiagen. Co. Ltd.). After overnight, the transfection reagent of each well was removed from cells and replaced by fresh prewarmed medium. On the following day, cells were treated with the respective test compound which was diluted by the same method, as in the Axl binding assay using DMSO, for 1 hour
After incubation with the test compounds, cells in the well of the plate were lysed using Tris lysis buffer. The lysate was transferred to two plates (total-Axl and phosphor-Axl) Mesoscale high bind plates and incubated for two hours at room temperature. Afterwards the lysates were removed from the plates and the plates were blocked using Blocking buffer. Subsequently Total-Axl antibody (H-124, Santa Cruz) was transferred to one Mesoscale high bind plate, and Phospho-Axl antibody (AF2228, R&D) to the other plate. After 1 h incubation, Sulpho-Tag antibody (goat anti-rabbit, Mesoscale) was added and again incubated for 1 hour. For the measurement, 2×MSD read buffer was added to each well and the plates were analyzed with a Mesoscale Sector Imager 2400. IC50 (half the maximal inhibitory concentration) was determined relative to between the vehicle (DMSO) control group and minimum control group as transfection of the control vector (pcDNA_DEST_40).
The results after this assay are shown in table 3 for selected compounds.

Molecules are shown by their SMILES. pIC50, pKd: −log10 of the molar value.

What is called pKd is −log10 of the Kd, conventionally taken in molar units. By pIC50 is commonly meant −log10 of the IC50, conventionally taken in molar units.

T2 sequence (P08581 25-1390): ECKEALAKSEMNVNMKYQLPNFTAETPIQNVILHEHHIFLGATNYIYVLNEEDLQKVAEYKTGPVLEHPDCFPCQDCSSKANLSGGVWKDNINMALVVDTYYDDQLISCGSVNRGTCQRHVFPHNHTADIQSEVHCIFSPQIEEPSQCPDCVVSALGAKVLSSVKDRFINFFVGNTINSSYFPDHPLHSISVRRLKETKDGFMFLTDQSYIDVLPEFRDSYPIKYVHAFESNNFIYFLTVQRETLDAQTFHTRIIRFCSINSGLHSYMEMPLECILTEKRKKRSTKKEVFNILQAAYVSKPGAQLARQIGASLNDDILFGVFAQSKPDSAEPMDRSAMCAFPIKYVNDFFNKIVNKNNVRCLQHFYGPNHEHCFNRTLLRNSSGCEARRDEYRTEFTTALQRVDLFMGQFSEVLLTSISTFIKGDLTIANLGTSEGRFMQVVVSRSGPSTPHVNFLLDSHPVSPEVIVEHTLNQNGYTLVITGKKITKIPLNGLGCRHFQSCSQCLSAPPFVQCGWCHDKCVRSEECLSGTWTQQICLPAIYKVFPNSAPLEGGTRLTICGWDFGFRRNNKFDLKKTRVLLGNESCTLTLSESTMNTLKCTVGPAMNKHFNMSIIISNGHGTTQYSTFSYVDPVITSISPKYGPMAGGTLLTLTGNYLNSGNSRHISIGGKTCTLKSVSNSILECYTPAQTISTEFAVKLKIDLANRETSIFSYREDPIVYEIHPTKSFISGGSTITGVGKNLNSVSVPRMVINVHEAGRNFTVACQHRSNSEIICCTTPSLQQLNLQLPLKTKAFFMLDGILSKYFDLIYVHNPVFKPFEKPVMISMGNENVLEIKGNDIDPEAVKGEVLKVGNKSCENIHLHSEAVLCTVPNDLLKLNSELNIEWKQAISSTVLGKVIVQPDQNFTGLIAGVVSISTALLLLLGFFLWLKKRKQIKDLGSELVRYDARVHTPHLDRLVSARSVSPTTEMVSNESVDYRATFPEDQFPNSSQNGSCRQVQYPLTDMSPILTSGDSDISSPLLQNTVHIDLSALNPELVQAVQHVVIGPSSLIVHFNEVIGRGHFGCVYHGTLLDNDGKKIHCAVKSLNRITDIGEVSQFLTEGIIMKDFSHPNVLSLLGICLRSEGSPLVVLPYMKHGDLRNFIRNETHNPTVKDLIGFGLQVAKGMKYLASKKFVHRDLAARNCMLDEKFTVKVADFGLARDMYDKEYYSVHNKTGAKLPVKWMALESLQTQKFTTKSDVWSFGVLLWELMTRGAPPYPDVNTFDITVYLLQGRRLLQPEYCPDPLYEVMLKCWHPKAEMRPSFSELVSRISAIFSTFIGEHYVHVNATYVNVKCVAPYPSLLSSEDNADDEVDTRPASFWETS

In the case of `CCOc1cn(-c2ccc(F)cc2CC)nc1C(=O)Nc1ccc(Oc2ccnc3cc(OC)c(OC)cc23)cn1` [Compound 112], the pKd on TYRO3 and at Met was greater than 7.00 in each case. This molecule also had a pIC50 in assay [1] greater than 7.00.
For `CCOc1cn(-c2cnccc2C)nc1C(=O)Nc1ccc(Oc2ccnc3cc(OC)c(OC)cc23)nn1` [Compound 210], the results for the pKd on TYRO3 and on Met were 6.00 to 7.00 and greater than 7.00, respectively. In assay [1], this molecule showed a pIC50 greater than 7.00.
Consider `CCOc1cn(-c2ccc(C(C)C)cc2)nc1C(=O)Nc1ccc(Oc2ccnc3cc(OC)c(OC)cc23)cn1` [Compound 116], for which the pKd is no more than 6.00 at TYRO3 and 6.00 to 7.00 on Met. Moreover, the pIC50 in assay [1] is greater than 7.00.
In the same order, the values of `CCOc1cn(-c2cnc(N)nc2)nc1C(=O)Nc1ccc(Oc2ccnc3cc(OC)c(OC)cc23)cn1` [Compound 10] are greater than 7.00, greater than 7.00 and greater than 7.00.
The corresponding values for `CCOc1cn(-c2ccc(C)cc2F)nc1C(=O)Nc1ccc(Oc2ccnc3cc(OC)c(OC)cc23)cn1` [Compound 100] are 6.00 to 7.00, 6.00 to 7.00 and greater than 7.00.
As to `CCOc1cn(-c2cnccc2C(C)=O)nc1C(=O)Nc1ccc(Oc2ccnc3cc(OC)c(OC)cc23)cn1` [Compound 182], the pKd at TYRO3 and on Met was greater than 7.00 each time. The same molecule had a pIC50 in assay [1] greater than 7.00.
As for `CCOc1cn(-c2ccc(C(C)C)cc2F)nc1C(=O)Nc1ccc(Oc2ccnc3cc(OC)c(OC)cc23)cn1` [Compound 127], the pKd on TYRO3 was no more than 6.00; on Met, greater than 7.00. In assay [1], this molecule had a pIC50 greater than 7.00.
Regarding `CCOc1cn(-c2cccnc2)nc1C(=O)Nc1ccc(Oc2ccnc3cc(OC(C)C)c(OC)cc23)cn1` [Compound 208], the pKd on TYRO3 is 6.00 to 7.00; on Met it was greater than 7.00. In assay [1], the pIC50 was greater than 7.00.
Turning to `CCOc1cnn(-c2cncs2)c1C(=O)Nc1ccc(Oc2ccnc3cc(OC)c(OC)cc23)cn1` [Compound 16], the pKd on TYRO3 and on Met was 6.00 to 7.00 throughout. Moreover, the pIC50 in assay [1] was 6.00 to 7.00.
Regarding `CCOc1cn(-c2cnc(C)cn2)nc1C(=O)Nc1ccc(Oc2ccnc3cc(OC)c(OC)cc23)cn1` [Compound 160], the pKd was no more than 6.00 at TYRO3 and greater than 7.00 at Met. Further, the pIC50 in assay [1] is greater than 7.00.
Consider `CCOc1cn(-c2cnccc2C)nc1C(=O)Nc1ccc(Oc2ccnc3cc(OC)c(OC)cc23)cc1F` [Compound 151], for which the pKd at TYRO3 and at Met was greater than 7.00 throughout. The pIC50 in assay [1] was greater than 7.00.
Regarding `CCOc1cn(-c2cnc(OC)nc2)nc1C(=O)Nc1ccc(Oc2ccnc3cc(OC)c(OC)cc23)cn1` [Compound 148], the pKd at TYRO3 was no more than 6.00; at Met it was greater than 7.00. Besides, in assay [1], the pIC50 is greater than 7.00.
As for `CCOc1cn(-c2ccc(F)c(CO)c2)nc1C(=O)Nc1ccc(Oc2ccnc3cc(OC)c(OC)cc23)cn1` [Compound 128], the pKd at TYRO3 and at Met was greater than 7.00 in each case. Besides, the pIC50 in assay [1] was greater than 7.00.
With `CCOc1cn(-c2ccc(F)c(CN(C)C)c2)nc1C(=O)Nc1ccc(Oc2ccnc3cc(OC)c(OC)cc23)cn1` [Compound 124], the pKd at TYRO3 and on Met was greater than 7.00 in each case. The pIC50 in assay [1] is greater than 7.00.
In the case of `CCOc1cn(-c2cncnc2C)nc1C(=O)Nc1ccc(Oc2ccnc3cc(OC)c(OC)cc23)cn1` [Compound 149], the pKd on TYRO3 and on Met was greater than 7.00 throughout. For the same molecule, the pIC50 in assay [1] is greater than 7.00.
For `COc1cc2nccc(Oc3ccc(NC(=O)c4nn(-c5ccc(F)cc5C)cc4OCC(F)(F)F)nc3)c2cc1OC` [Compound 203], the pKd at TYRO3 and at Met was greater than 7.00 throughout. In assay [1], the pIC50 is greater than 7.00.
In the case of `CCOc1cn(-c2ccc(F)cc2C(C)C)nc1C(=O)Nc1ccc(Oc2ccnc3cc(OC)c(OC)cc23)cn1` [Compound 125], the pKd at TYRO3 and on Met was greater than 7.00 throughout. The pIC50 in assay [1] is greater than 7.00.
As for `CCOc1cn(-c2ccc(Cl)cc2C(F)(F)F)nc1C(=O)Nc1ccc(Oc2ccnc3cc(OC)c(OC)cc23)cn1` [Compound 101], the figures for the pKd on TYRO3 and at Met were 6.00 to 7.00 and greater than 7.00, respectively. Moreover, the pIC50 in assay [1] is greater than 7.00.
Turning to `CCOc1cn(-c2ccc(C(F)(F)F)cc2F)nc1C(=O)Nc1ccc(Oc2ccnc3cc(OC)c(OC)cc23)cn1` [Compound 114], the values for the pKd on TYRO3 and on Met were no more than 6.00 and greater than 7.00, respectively. Further, in assay [1], the negative logarithm of the IC50 (pIC50) is greater than 7.00.
Consider `CCOc1cn(-c2cccnc2)nc1C(=O)Nc1ccc(Oc2ccnc3cc(OC)c(OC(F)(F)F)cc23)cn1` [Compound 199], for which the pKd on TYRO3 and at Met was no more than 6.00 each time. The molecule also had a pIC50 in assay [1] greater than 7.00.
For `CCOc1cn(-c2cnc(CO)nc2)nc1C(=O)Nc1ccc(Oc2ccnc3cc(OC)c(OC)cc23)cn1` [Compound 96], the pKd at TYRO3 and on Met was no more than 6.00 each time. Besides, in assay [1], the pIC50 was greater than 7.00.
For the molecule `CCOc1cn(-c2cnccc2Cl)nc1C(=O)Nc1ccc(Oc2ccnc3cc(OC)c(OC)cc23)c(F)c1` [Compound 193], the pKd at TYRO3 and at Met was greater than 7.00 throughout. The same molecule gave a pIC50 in assay [1] greater than 7.00.
With `CCOc1cn(-c2cnc(Cl)cn2)nc1C(=O)Nc1ccc(Oc2ccnc3cc(OC)c(OC)cc23)cn1` [Compound 169], the pKd at TYRO3 and on Met was no more than 6.00 throughout. Besides, in assay [1], the pIC50 is greater than 7.00.
Take `CCOc1cn(-c2ccc(OC(F)(F)F)cc2Cl)nc1C(=O)Nc1ccc(Oc2ccnc3cc(OC)c(OC)cc23)cc1F` [Compound 192]: the figures for the pKd at TYRO3 and on Met were 6.00 to 7.00 and greater than 7.00, respectively. The molecule further gave a pIC50 in assay [1] greater than 7.00.
For `CCOc1cn(-c2c(C)ccnc2C)nc1C(=O)Nc1ccc(Oc2ccnc3cc(OC)c(OC)cc23)cc1F` [Compound 191], the pKd on TYRO3 and at Met was greater than 7.00 throughout. This molecule showed a pIC50 in assay [1] greater than 7.00.
For the molecule `CCOc1cn(-c2ccc(Cl)cc2F)nc1C(=O)Nc1ccc(Oc2ccnc3cc(OC)c(OC)cc23)cn1` [Compound 106], the pKd on TYRO3 is 6.00 to 7.00; at Met, greater than 7.00. The pIC50 in assay [1] is greater than 7.00.
`CCOc1cn(-c2ccc(N)nc2)nc1C(=O)Nc1ccc(Oc2ccnc3cc(OC)c(OC)cc23)cn1` [Compound 6]: the pKd on TYRO3 was greater than 7.00; on Met, 6.00 to 7.00. The molecule also showed a negative-log IC50 (pIC50) in assay [1] greater than 7.00.
Regarding `CCOc1cn(-c2cncnc2C2CC2)nc1C(=O)Nc1ccc(Oc2ccnc3cc(OC)c(OC)cc23)cn1` [Compound 167], the pKd on TYRO3 and at Met was greater than 7.00 throughout. In assay [1], this molecule had a pIC50 greater than 7.00.
Take `CCOc1cn(-c2nccs2)nc1C(=O)Nc1ccc(Oc2ccnc3cc(OC)c(OC)cc23)cn1` [Compound 12]: the negative-log Kd (pKd) on TYRO3 was greater than 7.00; at Met it was 6.00 to 7.00. The negative logarithm of the IC50 (pIC50) in assay [1] was greater than 7.00.
In the case of `CCOc1cn(-c2ccc(OC(F)(F)F)cc2Cl)nc1C(=O)Nc1ccc(Oc2ccnc3cc(OC)c(OC)cc23)c(F)c1` [Compound 189], the pKd on TYRO3 and on Met was greater than 7.00 each time. This molecule also gave a pIC50 in assay [1] greater than 7.00.
Regarding `CCOc1cn(-c2nccnc2C(C)(C)O)nc1C(=O)Nc1ccc(Oc2ccnc3cc(OC)c(OC)cc23)cn1` [Compound 200], the negative-log Kd (pKd) at TYRO3 and on Met was greater than 7.00 each time. Besides, in assay [1], the pIC50 is greater than 7.00.
